Consider two compounds from BindingDB's records for doi:10.7270/Q2VT1QHF (Vanderbilt Screening Center For Gpcrs, Ion Channels and …, 2010).

The target of the experiment is Metabotropic glutamate receptor 4 (Homo sapiens, UniProt Q14833). Nature of the experiment: PubChem AID 2197.
Metabotropic glutamate receptor 4, sequence (Q14833 whole entry): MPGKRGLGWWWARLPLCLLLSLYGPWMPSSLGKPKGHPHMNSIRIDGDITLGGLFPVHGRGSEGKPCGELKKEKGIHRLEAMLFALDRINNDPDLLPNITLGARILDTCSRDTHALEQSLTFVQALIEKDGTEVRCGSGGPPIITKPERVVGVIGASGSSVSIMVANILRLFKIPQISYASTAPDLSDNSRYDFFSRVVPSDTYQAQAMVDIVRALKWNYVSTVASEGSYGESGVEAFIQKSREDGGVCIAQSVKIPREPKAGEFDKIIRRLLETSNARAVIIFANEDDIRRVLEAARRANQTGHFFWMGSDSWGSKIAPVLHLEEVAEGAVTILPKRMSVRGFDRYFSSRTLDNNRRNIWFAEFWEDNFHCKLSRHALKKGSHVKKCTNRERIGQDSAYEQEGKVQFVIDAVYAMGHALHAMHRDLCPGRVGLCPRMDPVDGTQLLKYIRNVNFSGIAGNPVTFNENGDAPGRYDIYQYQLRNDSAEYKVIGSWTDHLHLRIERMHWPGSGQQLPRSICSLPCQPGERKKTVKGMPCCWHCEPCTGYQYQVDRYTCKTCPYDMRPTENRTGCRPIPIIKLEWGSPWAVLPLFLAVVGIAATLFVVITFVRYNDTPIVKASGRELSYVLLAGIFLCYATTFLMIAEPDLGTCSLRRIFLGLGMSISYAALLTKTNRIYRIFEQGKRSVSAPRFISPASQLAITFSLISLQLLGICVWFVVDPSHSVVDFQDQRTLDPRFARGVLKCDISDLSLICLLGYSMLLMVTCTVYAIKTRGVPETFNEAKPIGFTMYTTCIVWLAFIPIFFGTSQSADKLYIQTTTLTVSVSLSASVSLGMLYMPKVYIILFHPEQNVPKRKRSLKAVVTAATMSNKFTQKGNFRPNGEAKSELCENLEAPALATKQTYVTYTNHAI

`O=C(Nc1ccc(-n2c(O)ccc2O)c(Cl)c1)c1ccccn1` [N-[3-chloro-4-(2,5-dioxopyrrolidin-1-yl)phenyl]pyridine-2-carboxamide] came in with an EC50 of 5.96 µM.

Turning to `O=C(Nc1ccc(-n2c(O)c3c(c2O)[C@H]2CC[C@@H]3O2)c(Cl)c1)c1ccccn1` [VU0405235-1], the EC50 came to 1.44 µM.
